Experimental data taken from patent publication US8334107B2, “Detection systems utilizing supported lipid bilayers” (priority 2005, dated 2012).

Tests used:
DMPG supported on MS-PPE = test: Binding curves of MLT to DMPG supported on MS-PPE (superquenching flow cytometric assay); conditions: flow cytometry, 10 μM AQS
Protocol: FIGS. 18A-B show binding curves for MLT-disruption of supported lipid bilayer by natural MLT (nMLT; FIG. 18A), and synthetic MLT (sMLT; FIG. 18B). Fluorescence intensity was normalized to that without MLT as determined by flow cytometry. The error bars represent the standard deviation (SD) of the means of normalized histograms obtained for 3 replicates.
(§1) Bead suspensions of 2.5×10^5 DMPG-coated MS-PPE in 200 μL of PBS were analyzed using a FACScan flow cytometer (Becton-Dickinson, Sunnyvale, Calif.) with excitation at 488 nm. Fluorescence signals were acquired on FL-1 channel (525 nm) using log amplification and analyzed with the CellQuest software. Kinetic analysis of disruption of supported lipid bilayer by melittin was performed by acquiring real-time data with continuous mixing of samples (10^6 MS-PPE in 800 μl of PBS) using a magnetic stirrer. The raw data were analyzed using IDL Query software developed by Bruce Edwards (Cancer Center, University of New Mexico, Albuquerque, N. Mex.).
From FIG. 18, the association constant (corresponding to the reciprocal of the point of half saturation) for nMLT and sMLT with DMPG were 5×10^6 M^−1 and 1.7×10^6 M^−1, respectively. […] Lower concentrations of nMLT, in comparison to sMLT, were required to disrupt the DMPG lipid bilayer. This might be attributed to the fact that nMLT contains some phospholipase A2 (PLA2) as a contaminant. […]

[1] = system: DMPG lipid bilayer on MS-PPE; test: Disruption of DMPG lipid bilayer on MS-PPE detected by superquenching with AQS, flow cytometry; type: biochemical; conditions: 10 μM AQS; sMLT 3.8 μM, nMLT 1.6 μM
Protocol: Lipid bilayers were disrupted by adding Triton X-100® detergent to the bead suspension to a final concentration of 0.25% (w/v).
Bead suspensions of 2.5×10^5 PPE-coated microspheres in 200 μL PBS were analyzed using a FACScan flow cytometer (Becton-Dickinson, Sunnyvale, Calif.) with excitation at 488 nm. Fluorescence signals were acquired on the FL-1 channel (525 nm) using log amplification and analyzed with the CellQuest software.
as §1
Because an anionic lipid was used to form a lipid bilayer around MS-PPE, it was expected that MLT will disrupt the DMPG lipid bilayer by such a detergent-like action. This was tested by adding 10 μM AQS to DMPG-coated MS-PPE followed by treatment with one of the following: Triton X-100® detergent, synthetic MLT (sMLT), or natural MLT (nMLT) and immediately reading the fluorescence by flow cytometry. […] These histograms resemble the ones reported previously for MS-PPE, without a lipid coating, in absence and in presence of AQS.
The kinetics of disruption of supported lipid bilayer by MLT were monitored by measuring real-time changes in fluorescence intensity by flow cytometry (FIG. 19). Suspensions of 10^6 DMPG-coated MS-PPE in 800 μL of PBS were treated with AQS at a final concentration of 10 μM, then with either sMLT, Triton X-100® detergent, or no treatment. […] Treatment with sMLT in the absence of AQS led to an increase in normalized fluorescence (FIG. 19, trace A). This can be attributed to disruption of the lipid bilayer by sMLT, and is consistent with a reversal of the slight quenching of fluorescence caused by the formation of a DMPG lipid bilayer over MS-PPE. Addition of AQS alone to DMPG-coated MS-PPE (FIG. 19, trace C) led to a 20% reduction in fluorescence as reported earlier. Addition of Triton X-100® detergent to DMPG-coated MS-PPE after the addition of AQS (first dip in trace E, FIG. 19) caused immediate decrease in fluorescence to ˜10% of its original value (second dip in trace E, FIG. 19). In contrast, addition of sMLT, after the addition of AQS, (FIG. 19, trace D) led to a gradual reduction of fluorescence intensity to ˜20% of the original value. Although MLT forms dimers at high concentrations (Dempsey, C. E. Biochim. Biophys. Acta 1990, 1031, 143-161), it is monomeric at the concentrations used in this study. On the other hand, Triton X-100® detergent forms micelles at the concentration used in this study.

[2] = system: DMPG bilayer on PPE-coated beads; test: Microfluidic assay: detection of lipid bilayer disruption by fluorescence superquenching; type: biochemical; conditions: injected as 1:1 mixture with 120 μM AQS
Protocol: The preparation of microcolumns with PPE-coated, silica beads was similar to that of with fluorescein containing beads. A 10 μL aliquot of 120 μM AQS was injected to the column. After a certain period of time, a 10 μL aliquot of 1:1 mixture of 120 μM AQS and 220 μM melittin was injected. During this process, the PPE-coated silica bead segment was irradiated at 488 nm and its fluorescence emission intensity was measured at 520 nm every 10 minutes. This experiment was repeated, while injecting 220 μM melittin first, and then 120 μM AQS.
The feasibility of using superquenching as a method of detecting membrane-toxin interactions in microcolumns was also investigated. The fluorescence intensity of the cationic polyelectrolyte poly(p-phenylene-ethynylene) polymer (PPE) can be super-quenched by the quencher 9,10-anthraquinone-2,6-disulfonic acid (AQS). […] It has been observed in flow cytometric studies that formation of DMPG membranes on PPE-coated beads will quench the PPE fluorescence to some extent. The initial rise in fluorescence intensity was probably due to the unquenching of the PPE, due to the removal of lipid bilayers from PPE-coated beads through melittin interaction, whereas the decrease in fluorescence corresponded to superquenching of PPE by AQS after disruption of DMPG bilayer by melittin. […]

[3] = system: EPC bilayer on porous silica beads; test: Suspension study: release of fluorescein dye from lipid bilayer coated porous silica beads; type: biochemical; conditions: all three concentrations 15, 45 and 250 μg/mL
Protocol: Lipid coatings on beads were disrupted using 10% Triton X-100. Each sample in micro-centrifuge tubes contained 5 mg of lipid bilayer coated, fluorescein entrapped beads in 200 μL of Tris buffer. Samples were centrifuged and 100 μL aliquots of supernatant were mixed with either 100 μL of Tris buffer or 100 μL of 10% Triton X-100® detergent in separate centrifuge tubes. The fluorescence intensity of each mixture was immediately (time=0) recorded. Each mixture was mixed with its respective bead sample in centrifuge tube and incubated at 25° C. in the dark. After 30 min, samples were centrifuged and fluorescent intensity of the supernatants was measured. Beads were resuspended in their respective supernatants. Fluorescence intensity was again measured at 90 and 150 min.
Experimental procedures were similar to the Triton X-100® detergent based analysis. For experiments with α-toxin, three different toxin concentrations: 15, 45 and 250 μg/mL were used at 37° C. and 25° C. Beads coated with EPC were used. In the experiments with melittin, 220 μM melittin was used with beads coated with either 100% EPC, 10:90 (molar ratio) mixture of DMPG and EPC or an 80:20 mixture of DMPG and DMPC. All melittin experiments were conducted at 25° C.
Previous suspension studies on disruption of lipid bilayers have been performed with small unilamellar vesicles where disruption of the lipid bilayer membranes was detected by monitoring the unquenching of a highly concentrated, encapsulated dye. In the present work disruption was monitored via release of fluorescein dye from porous beads, by measuring the increase in fluorescence intensity of the supernatant at 520 nm. Beads were first suspended in Tris buffer containing the disruptor. After selected time periods, beads were sedimented by centrifuging and a portion of the supernatant was taken for the measurement. The measured portion was added back to the bead sample to permit continuous monitoring. The scattering effect that was present in vesicle based studies was minimized by measuring only the supernatant after centrifugation of the beads.

EPC vesicles = conditions: incubation with α-toxin; cited from earlier work
[4] = system: supported lipid bilayer surrounding a porous bead; test: Kinetics of disruption of supported lipid bilayer by α-toxin, pH-reactive fluorescein in porous beads, flow cytometry; type: biochemical; conditions: pH outside 11.0, inside 2.6
From the text: FIGS. 4A-B illustrates the effects of alpha-toxin on lipid bilayer integrity. FIG. 4A graphically illustrates dose-dependent release of fluorescent dye from a lipid bilayer coated microbead after introduction of different concentrations of alpha-toxin, a membrane-associated pore-forming protein from Staphylococcus aureus. The normalized fluorescence intensity (at 520 nm) of the supernatant is plotted versus time for EPC-coated, fluorescein filled porous beads when using different concentrations of α-toxin added. 10% Triton was added after 150 min. FIG. 4B illustrates the kinetics of disrupting a supported lipid bilayer by α-toxin as monitored by recording changes in fluorescence intensity every 2 minutes by flow cytometry. The lipid bilayer surrounded a porous bead that contains a pH-reactive molecule (fluorescein), and the pH outside the beads was adjusted to 11.0, whereas inside the beads the pH was 2.6. As illustrated, increasing amounts of α-toxin increases the fluorescence emitted from within the beads.
In another experiment a lipid bilayer surrounding a porous bead that contains a pH-reactive molecule (fluorescein) was exposed to α-toxin. The pH outside the beads was adjusted to 11.0, whereas inside the beads the pH was 2.6. The kinetics of disruption of supported lipid bilayer by α-toxin were monitored by recording changes in fluorescence intensity every 2 minutes by flow cytometry. For the first 8 minutes there was no significant change in fluorescence intensity (FIG. 4B). However, after 8 minutes there was a gradual increase in fluorescence intensity (FIG. 4B) resulting from insertion of α-toxin into the supported lipid bilayer thus forming channels permeable to hydrogen cations and hydroxyl ions, which reduces the difference in the pH outside and inside the microspheres. […] This can be attributed to insertion of many α-toxin channels at this high concentration leading to disruption of the lipid bilayer and immediate equilibration of the pH inside and outside the porous microspheres.

| Substance | association constant (reciprocal of the point of half saturation) with DMPG (DMPG supported on MS-PPE) | quenching of the MS-PPE after treatment [1] | change in fluorescence intensity of bead segment [2] | increase in fluorescence intensity after 150 min ([3]; 25° C.) | increase in fluorescence intensity after 150 min ([3]; 37° C.) | dye encapsulated in EPC vesicles released (EPC vesicles) | change in fluorescence intensity ([4]; 45 μg/mL) | concentration at which the increase in fluorescence intensity reached its maximum [4] | time without significant change in fluorescence intensity before gradual increase ([4]; read every 2 minutes) |
| --- | --- | --- | --- | --- | --- | --- | --- | --- | --- |
| nMLT: natural melittin from Sigma, contains some phospholipase A2 as a contaminant | 5e+06 M⁻¹ | comparable to that occurring on addition of Triton X-100 | slight rise in fluorescence intensity followed by a significant decrease | – | – | – | – | – | – |
| α-toxin: membrane active pore-forming protein secreted by Staphylococcus aureus, ~33 kDa | – | – | – | about 3 fold | about 6.5 fold | 27% | did not cause a change in fluorescence intensity different from the baseline | 15 µg/mL | 8 min |
